{"source": "patent US9957289B2", "about": "“Compounds and methods for treating bacterial infections” (Washington University, priority 2013, dated 2018)", "data": [{"biological_target": "T1, FimH (Escherichia coli, UniProt P08191)", "T1 construct": "endogenous in cells; host or cells: type 1 piliated uropathogenic E. coli (UPEC)", "T1 sequence (P08191 22-300)": "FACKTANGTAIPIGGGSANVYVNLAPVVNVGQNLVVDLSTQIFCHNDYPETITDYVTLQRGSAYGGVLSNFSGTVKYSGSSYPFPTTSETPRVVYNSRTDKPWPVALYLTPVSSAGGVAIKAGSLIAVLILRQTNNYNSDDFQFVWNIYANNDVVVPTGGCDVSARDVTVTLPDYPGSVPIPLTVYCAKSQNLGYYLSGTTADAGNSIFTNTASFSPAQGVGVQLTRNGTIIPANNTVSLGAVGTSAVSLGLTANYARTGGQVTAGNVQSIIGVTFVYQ", "test": "Hemagglutination inhibition (HAI) assay, guinea pig red blood cells", "assay_type": "cell-based, E. coli", "details": "concentration inhibiting >90% hemagglutination of guinea pig red blood cells", "method": "FIG. 15 depicts the hemagglutination assay (HA) used to assess the compounds' ability to block FimH mediated binding. The HAI titer quantitatively measure the effect of inhibitors on blocking the FimH-mediated hemagglutination (HA) of guinea pig red blood cell infected with E. coli.\nIn some embodiments, activity of the compound is measured using hemmagglutination titer of guinea pig red blood cells. Hemagglutination of guinea pig red blood cells by type1 piliated UPEC is dependent upon FimH mannose binding ability and serial dilutions allow a quantitative analysis.\nHemagglutination assays for mannose-sensitive agglutination of guinea pig red blood cells were performed as previously described.", "units": {"HAI Titer EC>90": "µM"}, "values": [{"molecule": "CNC(=O)c1cccc(-c2ccc([C@H](O)C3OC(CO)C(O)C(O)C3O)c(C)c2)c1", "note": "(single isomer, unassigned) [Example 18B]", "HAI Titer EC>90": 6.000}, {"molecule": "COC(=O)c1cccc(-c2ccc(O[C@H]3O[C@@H](CO)[C@@H](O)[C@H](O)[C@H]3O)c(C)c2)c1", "note": "[Example 1, methyl 3-[3-methyl-4-[(2R,3R,4S,5S,6S)-3,4,5-trihydroxy-6-(hydroxymethyl)tetrahydropyran-2-yl]oxy-phenyl]benzoate]", "HAI Titer EC>90": 0.12}, {"molecule": "Cc1cc(-c2cccc(C(=O)Nc3ccncc3)c2)ccc1O[C@H]1O[C@@H](CO)[C@@H](O)[C@H](O)[C@H]1O", "note": "[Example 3, 3-[3-methyl-4-[(2R,3R,4S,5S,6S)-3,4,5-trihydroxy-6-(hydroxymethyl)tetrahydropyran-2-yl]oxy-phenyl]-N-(4-pyridyl)benzamide]", "HAI Titer EC>90": 0.064}, {"molecule": "Cc1cc(-c2cccc(C(=O)Nc3cccnc3)c2)ccc1O[C@H]1O[C@@H](CO)[C@@H](O)[C@H](O)[C@H]1O", "note": "[Example 4, 3-[3-methyl-4-[(2R,3R,4S,5S,6S)-3,4,5-trihydroxy-6-(hydroxymethyl)tetrahydropyran-2-yl]oxy-phenyl]-N-(3-pyridyl)benzamide]", "HAI Titer EC>90": 0.032}, {"molecule": "Cc1nnc(-c2ccc(-c3ccc(O[C@H]4O[C@@H](CO)[C@@H](O)[C@H](O)[C@H]4O)c(C)c3)cc2)o1", "note": "[Example 5, (2S,3S,4S,5R,6R)-2-(hydroxymethyl)-6-[2-methyl-4-[4-(5-methyl-1,3,4-oxadiazol-2-yl)phenyl]phenoxy]tetrahydropyran-3,4,5-triol]", "HAI Titer EC>90": 0.062}, {"molecule": "Cc1nnc(-c2cccc(-c3ccc(O[C@H]4O[C@@H](CO)[C@@H](O)[C@H](O)[C@H]4O)c(C)c3)c2)o1", "note": "[Example 6, (2S,3S,4S,5R,6R)-2-(hydroxymethyl)-6-[2-methyl-4-[3-(5-methyl-1,3,4-oxadiazol-2-yl)phenyl]phenoxy]tetrahydropyran-3,4,5-triol]", "HAI Titer EC>90": 0.062}, {"molecule": "COC(=O)Cn1ccc2ccc(-c3ccc(O[C@H]4O[C@@H](CO)[C@@H](O)[C@H](O)[C@H]4O)c(C)c3)cc2c1=O", "note": "[Example 8, methyl 2-[7-[3-methyl-4-[(2R,3R,4S,5S,6S)-3,4,5-trihydroxy-6(hydroxymethyl)tetrahydropyran-2-yl]oxy-phenyl]-1-oxo-2-isoquinolyl]acetate]", "HAI Titer EC>90": 0.006}, {"molecule": "Cc1cc(-c2ccc3ccn(CC(=O)O)c(=O)c3c2)ccc1O[C@H]1O[C@@H](CO)[C@@H](O)[C@H](O)[C@H]1O", "note": "[Example 9, 2-[7-[3-methyl-4-[(2R,3R,4S,5S,6S)-3,4,5-trihydroxy-6-(hydroxymethyl)tetrahydropyran-2-yl]oxy-phenyl]-1-oxo-2-isoquinolyl]acetic acid]", "HAI Titer EC>90": 0.016}, {"molecule": "Cc1cc(-c2ccc3ccn(CC(=O)Nc4cccnc4)c(=O)c3c2)ccc1O[C@H]1O[C@@H](CO)[C@@H](O)[C@H](O)[C@H]1O", "note": "[Example 10, 2-[7-[3-methyl-4-[(2R,3R,4S,5S,6S)-3,4,5-trihydroxy-6-(hydroxymethyl)tetrahydropyran-2-yl]oxy-phenyl]-1-oxo-2-isoquinolyl]-N-(3-pyridyl)acetamide]", "HAI Titer EC>90": 0.001}, {"molecule": "Cc1cc(-c2ccc3ccn(CC(=O)Nc4ccncc4)c(=O)c3c2)ccc1O[C@H]1O[C@@H](CO)[C@@H](O)[C@H](O)[C@H]1O", "note": "[Example 11, 2-[7-[3-methyl-4-[(2R,3R,4S,5S,6S)-3,4,5-trihydroxy-6-(hydroxymethyl)tetrahydropyran-2-yl]oxy-phenyl]-1-oxo-2-isoquinolyl]-N-(4-pyridyl)acetamide]", "HAI Titer EC>90": 0.001}, {"molecule": "Cc1cc(-c2ccc3ccn(CC(=O)N4CCN(C)CC4)c(=O)c3c2)ccc1O[C@H]1O[C@@H](CO)[C@@H](O)[C@H](O)[C@H]1O", "note": "[Example 12, 2-[2-(4-methylpiperazin-1-yl)-2-oxo-ethyl]-7-[3-methyl-4-[(2R,3R,4S,5S,6S)-3,4,5-trihydroxy-6-(hydroxymethyl)tetrahydropyran-2-yl]oxy-phenyl]isoquinolin-1-one]", "HAI Titer EC>90": 0.008}, {"molecule": "Cc1cc(-c2ccc3ccn(CC(=O)NCCN)c(=O)c3c2)ccc1OC1OC(CO)C(O)C(O)C1O", "note": "[Example 13, N-(2-aminoethyl)-2-[7-[3-methyl-4-[(2R,3R,4S,5S,6S)-3,4,5-trihydroy-6-(hydroxymethyl)tetrahydropyran-2-yl]oxy-phenyl]-1-oxo-2-isoquinolyl]acetamide]", "HAI Titer EC>90": 0.016}, {"molecule": "Cc1cc(-c2ccc3ccn(CCN(C)C)c(=O)c3c2)ccc1O[C@H]1O[C@@H](CO)[C@@H](O)[C@H](O)[C@H]1O", "note": "[Example 14, 2-(2-dimethylaminoethyl)-7-[3-methyl-4-[(2R,3R,4S,5S,6S)-3,4,5-trihydroxy-6-(hydroxymethyl)tetrahydropyran-2-yl]oxy-phenyl]isoquinolin-1-one]", "HAI Titer EC>90": 0.012}, {"molecule": "Cc1cc(-c2ccc3ccn(Cc4ccncc4)c(=O)c3c2)ccc1O[C@H]1O[C@@H](CO)[C@@H](O)[C@H](O)[C@H]1O", "note": "[Example 15, 7-[3-methyl-4-[(2R,3R,4S,5S,6S)-3,4,5-trihydroxy-6-(hydroxymethyl)tetrahydropyran-2-yl]oxy-phenyl]-2-(4-pyridylmethyl)isoquinolin-1-one]", "HAI Titer EC>90": 0.004}, {"molecule": "Cc1cc(-c2ccc3ccn(Cc4cccnc4)c(=O)c3c2)ccc1O[C@H]1O[C@@H](CO)[C@@H](O)[C@H](O)[C@H]1O", "note": "[Example 16, 7-[3-methyl-4-[(2R,3R,4S,5S,6S)-3,4,5-trihydroxy-6-(hydroxymethyl)tetrahydropyran-2-yl]oxy-phenyl]-2-(3-pyridylmethyl)isoquinolin-1-one]", "HAI Titer EC>90": 0.008}, {"molecule": "CNC(=O)c1sc(-c2ccc(O[C@H]3O[C@@H](CO)[C@@H](O)[C@H](O)[C@H]3O)c(C)c2)cc1NC(N)=O", "note": "[Example 17, N-methyl-5-[3-methyl-4-[(2R,3R,4S,5S,6S)-3,4,5-trihydroxy-6-(hydroxymethyl)tetrahydropyran-2-yl]oxy-phenyl]-3-ureido-thiophene-2-carboxamide]", "HAI Titer EC>90": 0.024}, {"molecule": "CNC(=O)c1cccc(-c2ccc(C[C@H]3O[C@@H](CO)[C@@H](O)[C@H](O)[C@H]3O)c(C)c2)c1", "note": "[Example 19, N-methyl-3-[3-methyl-4-[[(2R,3R,4R,5S,6S)-3,4,5-trihydroxy-6-(hydroxymethyl)tetrahydropyran-2-yl]methyl]phenyl]benzamide]", "HAI Titer EC>90": 2.000}]}]}
